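Following 48 hours of exposure in 96-well plates, responses at five concentrations were used to interpolate endpoints linearly. The concentration for 50% growth inhibition is given as GI50. The concentration for full growth arrest is given as TGI.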

Among the test systems are MDA-MB-435; UO-31 renal; HT29 colon; HCC-2998 colon; A498 renal; HOP-62 NSCLC; SNB-19 CNS; T-47D breast; SN12C renal; SF-268 CNS.
Holding throughout (experiment): growth of human tumour cells (NCI), 48 h

Regarding `O=C1Nc2ccccc2SC1C1SC(=S)N(Cc2ccccc2)C1=O` (stereo not given), the GI50 is 3.04 µM in the assay on MDA-MB-435; 5.63 µM in the assay with UO-31 renal; 3.98 µM in the assay with HT29 colon; 5.33 µM with HCC-2998 colon; 14.6 µM with A498 renal; 6.62 µM in the assay on HOP-62 NSCLC. Further, the GI50 in the assay with SNB-19 CNS was 11.2 µM; in the assay with T-47D breast, 0.815 µM; in the assay on SN12C renal, 4.79 µM; in the assay with SF-268 CNS, 3.37 µM. Moreover, the TGI was determined as 15.5 µM in the assay with MDA-MB-435; 22.8 µM in the assay on UO-31 renal; 39.8 µM with HT29 colon; 17.1 µM in the assay with HCC-2998 colon; 32.9 µM in the assay with A498 renal; 19.7 µM in the assay with HOP-62 NSCLC. The TGI is 29.5 µM in the assay on SNB-19 CNS, 21.1 µM in the assay on T-47D breast, 15.2 µM with SN12C renal and 11.4 µM in the assay on SF-268 CNS.
`Cc1ccc(NC2=C(Cl)C(=O)c3nc(C)ccc3C2=O)cc1`: the GI50 is 1.48 µM in the assay on MDA-MB-435; 1.53 µM with UO-31 renal; 2.79 µM with HT29 colon; 1.67 µM in the assay on HCC-2998 colon; 0.0538 µM in the assay on A498 renal; 0.836 µM in the assay on HOP-62 NSCLC. Further, the GI50 in the assay on SNB-19 CNS is 1.32 µM; in the assay on T-47D breast, 1.08 µM; in the assay with SN12C renal it was 1.37 µM; in the assay with SF-268 CNS, 1.74 µM. Also, the TGI in the assay on MDA-MB-435 is 2.88 µM; in the assay with UO-31 renal, 2.88 µM; in the assay on HT29 colon, 8.46 µM; with HCC-2998 colon, 3.2 µM; with A498 renal, 3.81 µM; in the assay with HOP-62 NSCLC, 2.58 µM. In addition, the TGI in the assay with SNB-19 CNS turned out to be 3.01 µM; with T-47D breast, 3.3 µM; in the assay on SN12C renal, 2.85 µM; in the assay on SF-268 CNS, 3.78 µM.
Consider `Nc1cc(C(F)F)c(-c2nc(N3[C@@H]4CC[C@H]3COC4)nc(N3[C@@H]4CC[C@H]3COC4)n2)cn1`, for which the GI50 in the assay on MDA-MB-435 was 0.378 µM; with UO-31 renal, 0.119 µM; in the assay with HT29 colon it was 0.628 µM; in the assay on HCC-2998 colon, 0.636 µM; in the assay with A498 renal it was 0.0367 µM; in the assay on HOP-62 NSCLC, 0.161 µM. In addition, the GI50 is 0.706 µM in the assay on SNB-19 CNS, 0.0533 µM in the assay with T-47D breast, 0.342 µM in the assay on SN12C renal and 0.374 µM in the assay with SF-268 CNS. The TGI in the assay on MDA-MB-435 was > 30.6 µM; in the assay on UO-31 renal it was 6.85 µM; in the assay with HT29 colon, > 100 µM; in the assay with HCC-2998 colon, > 100 µM; in the assay with A498 renal it was 0.232 µM; in the assay with HOP-62 NSCLC it was 2.36 µM. Moreover, the TGI is > 100 µM in the assay with SNB-19 CNS, 0.41 µM in the assay on T-47D breast, > 100 µM with SN12C renal and > 100 µM in the assay with SF-268 CNS.
Regarding `O=C(c1cccs1)c1c(C(F)(F)F)n([O-])c2cc(F)c(F)cc2[n+]1=O`, the GI50 was 2.62 µM in the assay on MDA-MB-435; 2.97 µM with UO-31 renal; 9.5 µM with HT29 colon; 6.65 µM in the assay with HCC-2998 colon; 1.46 µM in the assay on A498 renal; 3.77 µM in the assay on HOP-62 NSCLC. Further, the GI50 with SNB-19 CNS is 6.01 µM; in the assay with T-47D breast it was 2.25 µM; in the assay with SN12C renal it was 1.38 µM; in the assay on SF-268 CNS it was 2.99 µM. Also, the TGI with MDA-MB-435 was determined as 5.28 µM; in the assay on UO-31 renal, 5.51 µM; with HT29 colon it was 50 µM; with HCC-2998 colon, 9.07 µM; in the assay on A498 renal it was 3.79 µM; in the assay on HOP-62 NSCLC, 6.21 µM. In addition, the TGI amounted to 8.76 µM in the assay with SNB-19 CNS, 5.96 µM with T-47D breast, 3.59 µM with SN12C renal and 6.88 µM in the assay with SF-268 CNS.
On to `O=C(N/N=C/c1cc2ccccc2c2ccccc12)c1cc(O)c(O)c(O)c1`, for which the GI50 in the assay on MDA-MB-435 was 3.58 µM; in the assay on UO-31 renal, 2.64 µM; with HT29 colon it was 9.95 µM; in the assay with HCC-2998 colon it was 8.54 µM; with A498 renal, 13.3 µM; with HOP-62 NSCLC it was 3.37 µM. For the same compound, the GI50 in the assay on SNB-19 CNS was 3.6 µM; in the assay on T-47D breast, 2.23 µM; in the assay with SN12C renal, 4.99 µM; in the assay on SF-268 CNS, 3.74 µM. Moreover, the TGI in the assay on MDA-MB-435 worked out at 16.9 µM; in the assay with UO-31 renal, 16.5 µM; in the assay with HT29 colon, 31 µM; with HCC-2998 colon, 22.4 µM; in the assay with A498 renal it was 27 µM; in the assay on HOP-62 NSCLC, 12.4 µM. Besides, the TGI with SNB-19 CNS turned out to be 18.7 µM; in the assay with T-47D breast it was 7.24 µM; in the assay with SN12C renal, 30 µM; in the assay with SF-268 CNS, 14.7 µM.
As for `O=C(Nc1ccc(-n2cc(-c3ccncc3)c(-c3ccc(Cl)c(O)c3)n2)cc1)c1cc(Cl)cc(Cl)c1`, the GI50 in the assay with MDA-MB-435 is 3.45 µM; in the assay with UO-31 renal, 3.94 µM; in the assay on HT29 colon it was 2.68 µM; in the assay with HCC-2998 colon, 3.41 µM; in the assay with A498 renal, 17.3 µM; with HOP-62 NSCLC, 2.49 µM. Further, the GI50 is > 36.2 µM in the assay with SNB-19 CNS, > 100 µM with T-47D breast, > 100 µM in the assay with SN12C renal and > 100 µM in the assay on SF-268 CNS. Further, the TGI in the assay on MDA-MB-435 was > 100 µM; with UO-31 renal, > 100 µM; with HT29 colon, > 23.6 µM; in the assay on HCC-2998 colon, > 23.6 µM; with A498 renal, > 100 µM; with HOP-62 NSCLC, 18.8 µM. Also, the TGI with SNB-19 CNS, in the assay with T-47D breast, in the assay on SN12C renal and in the assay on SF-268 CNS was > 100 µM throughout.
Regarding `O=C(O)[C@@H]1C[C@@H](O)CN1`, the TGI with MDA-MB-435, in the assay on UO-31 renal, with HT29 colon, in the assay with HCC-2998 colon, in the assay on A498 renal and with HOP-62 NSCLC was > 100 µM throughout. Moreover, the TGI in the assay on SNB-19 CNS, in the assay with T-47D breast, in the assay with SN12C renal and in the assay on SF-268 CNS was > 100 µM throughout.
In the case of `C=CC1=C(C)C2=NC1=CC1=NC(=C(CC)/C1=C/O)C=C1C=C3C(=O)C(C(=O)OC)C(=C4NC(=C2)C(C)C4CCC(=O)OC/C=C(\C)CCCC(C)CCCC(C)CCCC(C)C)C3=N1` (stereo not given) (tested in a mixture with another compound), the TGI in the assay on MDA-MB-435, in the assay with UO-31 renal, in the assay with HT29 colon, with HCC-2998 colon, in the assay on A498 renal and with HOP-62 NSCLC was > 100 µM throughout. The TGI in the assay with SNB-19 CNS, with T-47D breast, in the assay with SN12C renal and in the assay on SF-268 CNS was > 100 µM throughout.

The record behind these values is PubChem BioAssay (NCI).
